# Measured values: ChEMBL document CHEMBL6127131, “Design, Synthesis, and Biological Evaluation of New Selective PDE4 Inhibitors for Topical Treatment of Psoriasis” (J Med Chem, 2024)
# Columns and labels:
# RAW264.7 [1] = test: Anti-inflammatory activity against LPS induced mouse RAW264.7 cells assessed as reduction in TNFalpha secretion at 10 uM incubated for 24 hrs by ELISA; assay type: functional
# [2] = target: T1, 3',5'-cyclic-AMP phosphodiesterase 4D (Homo sapiens, UniProt Q08499); test: Inhibition of recombinant full-length PDE4D2 (unknown origin) at 1 uM using FAM-cAMP as substrate preincubated for 15 mins followed by substrate addition and measured after 30 mins by plate reader assay relative to control; details: time 45.0 min
# T1 sequence (Q08499 whole entry): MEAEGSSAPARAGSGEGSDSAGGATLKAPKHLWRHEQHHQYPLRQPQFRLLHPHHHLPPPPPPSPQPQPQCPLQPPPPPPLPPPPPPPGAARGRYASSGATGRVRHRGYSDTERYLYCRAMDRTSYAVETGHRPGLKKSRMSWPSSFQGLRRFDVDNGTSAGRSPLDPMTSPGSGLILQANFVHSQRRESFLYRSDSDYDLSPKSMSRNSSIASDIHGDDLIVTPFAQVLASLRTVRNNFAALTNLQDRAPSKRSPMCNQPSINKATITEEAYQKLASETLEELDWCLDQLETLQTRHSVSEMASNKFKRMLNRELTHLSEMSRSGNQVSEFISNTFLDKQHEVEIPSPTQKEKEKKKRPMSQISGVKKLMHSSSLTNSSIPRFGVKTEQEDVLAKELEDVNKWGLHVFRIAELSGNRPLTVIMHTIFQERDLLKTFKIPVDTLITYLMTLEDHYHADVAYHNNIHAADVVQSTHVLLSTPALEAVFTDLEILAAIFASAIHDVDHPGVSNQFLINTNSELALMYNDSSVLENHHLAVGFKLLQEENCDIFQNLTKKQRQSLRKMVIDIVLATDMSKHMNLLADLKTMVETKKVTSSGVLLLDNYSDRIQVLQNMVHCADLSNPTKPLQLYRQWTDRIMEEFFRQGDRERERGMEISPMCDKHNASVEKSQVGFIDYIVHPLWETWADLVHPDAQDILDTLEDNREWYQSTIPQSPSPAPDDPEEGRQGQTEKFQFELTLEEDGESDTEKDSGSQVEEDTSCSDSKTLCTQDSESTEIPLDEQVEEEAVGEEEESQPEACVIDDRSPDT
# [3] = target: T1, 3',5'-cyclic-AMP phosphodiesterase 4D; test: Inhibition of recombinant full-length PDE4D2 (unknown origin) using FAM-cAMP as substrate preincubated for 15 mins followed by substrate addition and measured after 30 mins by plate reader assay
# RAW264.7 [4] = test: Anti-inflammatory activity against LPS induced mouse RAW264.7 cells assessed as reduction in IL-6 secretion incubated for 24 hrs by ELISA; assay type: functional, cell-based; details: RAW264.7, 24 h
# [5] = Cytotoxicity against mouse RAW264.7 cells incubated for 24 hrs by CCK8 assay; assay type: toxicity, cell-based
# [6] = Cytotoxicity against human HaCaT cells incubated for 24 hrs by CCK8 assay; assay type: toxicity, cell-based
# RAW264.7 [7] = test: Anti-inflammatory activity against LPS induced mouse RAW264.7 cells assessed as reduction in TNFalpha secretion incubated for 24 hrs by ELISA; assay type: functional, cell-based; details: RAW264.7, 24 h
# HaCaT = test: Anti-inflammatory activity against M5 induced human HaCaT cells assessed as reduction in TNFalpha secretion incubated for 24 hrs by ELISA; assay type: functional, cell-based
SMILES,inhibition [2],inhibition at 10 µM (RAW264.7 [1]),also measured
O=C(Nc1ccncc1)c1csc(-c2ccc(OC(F)F)c(OCC3CC3)c2)n1,–,25.6%,IC50 [3]: 77.2 nM
CC(C)(C)CNC(=O)c1cnn2c(-c3ccc(OC(F)F)c(OCC4CC4)c3)ccnc12,< 73.1%,–,–
O=C(NCc1c(F)cc(F)cc1F)c1csc(-c2ccc(OC(F)F)c(OCC3CC3)c2)n1,–,34%,IC50 [3]: 25.7 nM
O=C(Nc1nc2ccccc2s1)c1csc(-c2ccc(OC(F)F)c(OCC3CC3)c2)n1,75.3%,21.7%,–
O=C(Nc1ccccc1)c1cnn2c(-c3ccc(OC(F)F)c(OCC4CC4)c3)ccnc12,< 73.1%,–,–
O=C(Nc1ccccc1)c1csc(-c2ccc(OC(F)F)c(OCC3CC3)c2)n1,72.4%,26.5%,–
O=C(NCc1cccc(F)c1F)c1csc(-c2ccc(OC(F)F)c(OCC3CC3)c2)n1,–,24.8%,IC50 [3]: 25 nM
O=C(NCc1ccc2ccccc2c1)c1cnn2c(-c3ccc(OC(F)F)c(OCC4CC4)c3)ccnc12,< 73.1%,–,–
O=C(NCC1CCOCC1)c1cnn2c(-c3ccc(OC(F)F)c(OCC4CC4)c3)ccnc12,< 73.1%,–,–
O=C(NC1CC1)c1cnn2c(-c3ccc(OC(F)F)c(OCC4CC4)c3)ccnc12,< 73.1%,–,–
O=C(Nc1nccs1)c1csc(-c2ccc(OC(F)F)c(OCC3CC3)c2)n1,64.8%,14.6%,–
O=C(Nc1ccc2cc[nH]c2c1)c1cnn2c(-c3ccc(OC(F)F)c(OCC4CC4)c3)ccnc12,< 73.1%,–,–
O=C(Nc1nccs1)c1cnn2c(-c3ccc(OC(F)F)c(OCC4CC4)c3)ccnc12,< 73.1%,–,–
O=C(O)c1csc(-c2ccc(OC(F)F)c(OCC3CC3)c2)n1,78.5%,22.9%,–
O=C(Nc1ccc2ncsc2c1)c1cnn2c(-c3ccc(OC(F)F)c(OCC4CC4)c3)ccnc12,< 73.1%,–,–
O=C(NC1CCCCC1)c1cnn2c(-c3ccc(OC(F)F)c(OCC4CC4)c3)ccnc12,< 73.1%,–,–
O=C(NCc1c(F)cccc1F)c1csc(-c2ccc(OC(F)F)c(OCC3CC3)c2)n1,–,–,IC50 [3]: 9.36 nM; IC50 (RAW264.7 [4]): 57000 nM; CC50 at 24 h [5]: > 50000 nM; CC50 at 24 h [6]: > 50000 nM; IC50 (RAW264.7 [7]): 48400 nM; IC50 (HaCaT): 22600 nM
Cn1cc(NC(=O)c2cnn3c(-c4ccc(OC(F)F)c(OCC5CC5)c4)ccnc23)cn1,< 73.1%,–,–
O=C(NCc1ccc2ccccc2c1)c1csc(-c2ccc(OC(F)F)c(OCC3CC3)c2)n1,78%,14%,–
O=C(Nc1ccncc1)c1cnn2c(-c3ccc(OC(F)F)c(OCC4CC4)c3)ccnc12,< 73.1%,–,–
CCC(CC)NC(=O)c1cnn2c(-c3ccc(OC(F)F)c(OCC4CC4)c3)ccnc12,< 73.1%,–,–
O=C(NCc1ccccc1)c1cc2nccc(-c3ccc(OC(F)F)c(OCC4CC4)c3)n2n1,–,19.6%,IC50 [3]: 546 nM
O=C(NCc1ccc(F)cc1F)c1cc2nccc(-c3ccc(OC(F)F)c(OCC4CC4)c3)n2n1,–,13.6%,IC50 [3]: 558 nM
CC(C)CNC(=O)c1cnn2c(-c3ccc(OC(F)F)c(OCC4CC4)c3)ccnc12,< 73.1%,–,–
O=C(NCc1ccccc1)c1csc(-c2ccc(OC(F)F)c(OCC3CC3)c2)n1,–,29%,IC50 [3]: 25.9 nM

# More lines, main results first:
inhibition [2],SMILES,inhibition at 10 µM (RAW264.7 [1]),also measured
89.2%,O=C(Nc1ccccc1)c1cc2nccc(-c3ccc(OC(F)F)c(OCC4CC4)c3)n2n1,16.5%,–
86.1%,O=C(Nc1nccs1)c1cc2nccc(-c3ccc(OC(F)F)c(OCC4CC4)c3)n2n1,25.8%,–
41.9%,O=C(NCc1c(F)cccc1F)c1cc2nccc(-c3ccc(OC(F)F)c(OCC4CC4)c3)n2n1,27.9%,–
< 73.1%,O=C(NCc1cccnc1)c1cnn2c(-c3ccc(OC(F)F)c(OCC4CC4)c3)ccnc12,–,–
< 73.1%,O=C(NCc1c(F)cc(F)cc1F)c1cnn2c(-c3ccc(OC(F)F)c(OCC4CC4)c3)ccnc12,–,–
< 73.1%,O=C(NCc1ccccc1)c1cnn2c(-c3ccc(OC(F)F)c(OCC4CC4)c3)ccnc12,–,–
49.3%,O=C(NCc1cccnc1)c1cc2nccc(-c3ccc(OC(F)F)c(OCC4CC4)c3)n2n1,6.6%,–
< 73.1%,O=C(NCc1cc(F)ccc1F)c1cnn2c(-c3ccc(OC(F)F)c(OCC4CC4)c3)ccnc12,–,–
64.6%,O=C(NCc1cccc(F)c1F)c1cc2nccc(-c3ccc(OC(F)F)c(OCC4CC4)c3)n2n1,13.7%,–
< 73.1%,COc1ccc(CNC(=O)c2cnn3c(-c4ccc(OC(F)F)c(OCC5CC5)c4)ccnc23)cn1,–,–
38.4%,O=C(NCc1c(F)cc(F)cc1F)c1cc2nccc(-c3ccc(OC(F)F)c(OCC4CC4)c3)n2n1,23.3%,–
42.6%,O=C(NCc1cc(F)ccc1F)c1cc2nccc(-c3ccc(OC(F)F)c(OCC4CC4)c3)n2n1,16.3%,–
< 73.1%,O=C(NCc1ccc(F)cc1F)c1cnn2c(-c3ccc(OC(F)F)c(OCC4CC4)c3)ccnc12,–,–
< 73.1%,O=C(NCc1cccc(F)c1F)c1cnn2c(-c3ccc(OC(F)F)c(OCC4CC4)c3)ccnc12,–,–
38.3%,O=C(NCc1ccc2ccccc2c1)c1cc2nccc(-c3ccc(OC(F)F)c(OCC4CC4)c3)n2n1,12.4%,–
79.1%,O=C(NCc1ccc(F)cc1F)c1csc(-c2ccc(OC(F)F)c(OCC3CC3)c2)n1,17.6%,–
62.7%,O=C(NCC1CCOCC1)c1cc2nccc(-c3ccc(OC(F)F)c(OCC4CC4)c3)n2n1,38.6%,–
70.7%,O=C(NCc1ncccn1)c1cc2nccc(-c3ccc(OC(F)F)c(OCC4CC4)c3)n2n1,25.1%,–
< 73.1%,O=C(NCc1c(F)cccc1F)c1cnn2c(-c3ccc(OC(F)F)c(OCC4CC4)c3)ccnc12,–,–
46.7%,Cn1cc(NC(=O)c2cc3nccc(-c4ccc(OC(F)F)c(OCC5CC5)c4)n3n2)cn1,15.4%,–
